{"source": "patent US20140135357A1", "about": "“DOSE REGIME FOR CAMPTOTHECIN DERIVATIVES” (Taiwan Liposome Company, Ltd., priority 2012, published 2014)", "key": {"[1]": {"assay": "in-vitro study of anti-proliferative activity", "type": "cell-based"}, "clinical": {"assay": "clinical", "conditions": "human, in vivo"}, "[2]": {"conditions": "human, in vivo"}, "topoisomerase I": {"target": "T1, topoisomerase I (Homo sapiens, UniProt P11387)", "T1 sequence (P11387 1-765)": "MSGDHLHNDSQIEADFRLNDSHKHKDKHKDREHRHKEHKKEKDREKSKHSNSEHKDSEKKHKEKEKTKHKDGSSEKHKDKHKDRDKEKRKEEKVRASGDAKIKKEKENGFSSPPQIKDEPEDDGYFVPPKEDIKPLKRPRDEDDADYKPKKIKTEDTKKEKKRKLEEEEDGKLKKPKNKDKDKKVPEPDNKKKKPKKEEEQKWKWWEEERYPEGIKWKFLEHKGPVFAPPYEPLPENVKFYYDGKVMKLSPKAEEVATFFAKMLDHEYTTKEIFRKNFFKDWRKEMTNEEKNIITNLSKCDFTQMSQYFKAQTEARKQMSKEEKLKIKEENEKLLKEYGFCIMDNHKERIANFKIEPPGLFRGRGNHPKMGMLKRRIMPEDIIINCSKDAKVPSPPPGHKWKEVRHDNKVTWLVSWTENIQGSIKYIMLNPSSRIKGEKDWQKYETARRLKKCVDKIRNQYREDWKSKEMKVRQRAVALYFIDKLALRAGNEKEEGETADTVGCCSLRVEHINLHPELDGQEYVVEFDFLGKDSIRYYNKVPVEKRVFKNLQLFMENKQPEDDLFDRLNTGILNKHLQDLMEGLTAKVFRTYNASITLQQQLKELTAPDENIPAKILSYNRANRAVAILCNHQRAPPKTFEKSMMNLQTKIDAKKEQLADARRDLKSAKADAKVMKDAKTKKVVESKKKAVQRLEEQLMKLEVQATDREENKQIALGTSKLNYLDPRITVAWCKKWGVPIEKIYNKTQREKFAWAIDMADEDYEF", "assay": "Topoisomerase I inhibition", "type": "biochemical"}}, "note": "“Also recorded” adds a separate entry of the source. Read-outs that look alike come from different tables or passages of the source.", "data": [{"smiles": "CC[C@@]1(OC(=O)[C@H](C)O)C(=O)OCc2c1cc1n(c2=O)Cc2cc3c(CN(C)C)c(O)ccc3nc2-1", "note": "[TLC-U2, S,S-topotecan lactate]", "values": [{"measurement": "anti-proliferative activity", "setting": "[1]", "result": "comparable to that of TLC 388HCl; also recorded: more potent than that of TLC-U1"}, {"measurement": "AUC0-t", "setting": "clinical; 1.5 mg/m2, AUC0-t", "result": 3.74, "unit": "ng·h/mL"}, {"measurement": "Cmax", "setting": "clinical; 1.5 mg/m2, Cmax", "result": 3.34, "unit": "ng/mL"}, {"measurement": "Tmax", "setting": "clinical; 1.5 mg/m2, Tmax", "result": 37.7, "unit": "min"}, {"measurement": "half-life", "setting": "clinical; 1.5 mg/m2, t1/2", "result": 138, "unit": "min"}, {"measurement": "AUC0-t", "setting": "clinical; 3 mg/m2, AUC0-t", "result": 7.91, "unit": "ng·h/mL"}, {"measurement": "Cmax", "setting": "clinical; 3 mg/m2, Cmax", "result": 5.14, "unit": "ng/mL"}, {"measurement": "Tmax", "setting": "clinical; 3 mg/m2, Tmax", "result": 28, "unit": "min"}, {"measurement": "half-life", "setting": "clinical; 3 mg/m2, t1/2", "result": 140, "unit": "min"}, {"measurement": "AUC0-t", "setting": "clinical; 6 mg/m2, AUC0-t", "result": 11.6, "unit": "ng·h/mL"}, {"measurement": "Cmax", "setting": "clinical; 6 mg/m2, Cmax", "result": 7.52, "unit": "ng/mL"}, {"measurement": "Tmax", "setting": "clinical; 6 mg/m2, Tmax", "result": 28, "unit": "min"}, {"measurement": "half-life", "setting": "clinical; 6 mg/m2, t1/2", "result": 148, "unit": "min"}, {"measurement": "AUC0-t", "setting": "clinical; 9 mg/m2, AUC0-t", "result": 15.5, "unit": "ng·h/mL"}, {"measurement": "Cmax", "setting": "clinical; 9 mg/m2, Cmax", "result": 11.5, "unit": "ng/mL"}, {"measurement": "Tmax", "setting": "clinical; 9 mg/m2, Tmax", "result": 30.2, "unit": "min"}, {"measurement": "half-life", "setting": "clinical; 9 mg/m2, t1/2", "result": 195, "unit": "min"}, {"measurement": "AUC0-t", "setting": "clinical; 13.5 mg/m2", "result": 29.1, "unit": "ng·h/mL"}, {"measurement": "Cmax", "setting": "clinical; 13.5 mg/m2", "result": 18.1, "unit": "ng/mL"}, {"measurement": "Tmax", "setting": "clinical; 13.5 mg/m2", "result": 22, "unit": "min"}, {"measurement": "half-life", "setting": "clinical; 13.5 mg/m2", "result": 147, "unit": "min"}, {"measurement": "AUC0-t", "setting": "clinical; 20 mg/m2, AUC0-t", "result": 33.6, "unit": "ng·h/mL"}, {"measurement": "Cmax", "setting": "clinical; 20 mg/m2, Cmax", "result": 28.6, "unit": "ng/mL"}, {"measurement": "Tmax", "setting": "clinical; 20 mg/m2, Tmax", "result": 29, "unit": "min"}, {"measurement": "half-life", "setting": "clinical; 20 mg/m2, t1/2", "result": 149, "unit": "min"}, {"measurement": "AUC0-t", "setting": "clinical; 30 mg/m2, AUC0-t", "result": 49.5, "unit": "ng·h/mL"}, {"measurement": "Tmax", "setting": "clinical; 30 mg/m2, Tmax", "result": 25.5, "unit": "min"}, {"measurement": "half-life", "setting": "clinical; 30 mg/m2, t1/2", "result": 139, "unit": "min"}, {"measurement": "AUC0-t", "setting": "clinical; 35 mg/m2, AUC0-t", "result": 88.2, "unit": "ng·h/mL"}, {"measurement": "Cmax", "setting": "clinical; 35 mg/m2, Cmax", "result": 48.5, "unit": "ng/mL"}, {"measurement": "Tmax", "setting": "clinical; 35 mg/m2, Tmax", "result": 36.5, "unit": "min"}, {"measurement": "half-life", "setting": "clinical; 35 mg/m2, t1/2", "result": 188, "unit": "min"}, {"measurement": "AUC0-t", "setting": "clinical; 40 mg/m2, AUC0-t", "result": 74.1, "unit": "ng·h/mL"}, {"measurement": "Cmax", "setting": "clinical; 40 mg/m2, Cmax", "result": 52.5, "unit": "ng/mL"}, {"measurement": "Tmax", "setting": "clinical; 40 mg/m2, Tmax", "result": 26.7, "unit": "min"}, {"measurement": "half-life", "setting": "clinical; 40 mg/m2, t1/2", "result": 157, "unit": "min"}, {"measurement": "AUC0-t", "setting": "clinical; 50 mg/m2, AUC0-t", "result": 101, "unit": "ng·h/mL"}, {"measurement": "Cmax", "setting": "clinical; 50 mg/m2, Cmax", "result": 65.7, "unit": "ng/mL"}, {"measurement": "Tmax", "setting": "clinical; 50 mg/m2, Tmax", "result": 23.4, "unit": "min"}, {"measurement": "half-life", "setting": "clinical; 50 mg/m2, t1/2", "result": 153, "unit": "min"}, {"measurement": "AUC0-t", "setting": "clinical; 60 mg/m2, AUC0-t", "result": 107, "unit": "ng·h/mL"}, {"measurement": "Cmax", "setting": "clinical; 60 mg/m2, Cmax", "result": 87.4, "unit": "ng/mL"}, {"measurement": "Tmax", "setting": "clinical; 60 mg/m2, Tmax", "result": 27, "unit": "min"}, {"measurement": "half-life", "setting": "clinical; 60 mg/m2, t1/2", "result": 153, "unit": "min"}, {"measurement": "Tmax", "setting": "clinical; 60 mg/m2, tmax", "result": "28.2 ± 8.4", "unit": "min"}, {"measurement": "half-life", "setting": "clinical; T1/2", "result": "> 150", "unit": "min"}, {"measurement": "Tmax", "setting": "clinical; Tmax", "result": "< 60", "unit": "min"}, {"measurement": "Dose-normalized AUClast", "setting": "[2]", "result": "4.05 ± 1.34 nM*h/(mg/m^2)"}, {"measurement": "Dose-normalized Cmax", "setting": "[2]", "result": "2.84 ± 0.97 nM/(mg/m^2)"}, {"measurement": "difference between PK profiles on Day 1 and Day 8", "setting": "[2]", "result": "no significant difference"}, {"measurement": "dose proportionality of exposure", "setting": "[2]", "result": "roughly dose proportional"}, {"measurement": "AUC0-t", "setting": "[2]; 1.5 mg/m2", "result": "2.872 (0.882) hr · ng/mL"}, {"measurement": "Cmax", "setting": "[2]; 1.5 mg/m2", "result": "2.117 (0.468) ng/mL"}, {"measurement": "Tmax", "setting": "[2]; 1.5 mg/m2", "result": "0.505 (0.039) hr"}, {"measurement": "t1/2", "setting": "[2]; 1.5 mg/m2", "result": "1.953 (0.698) hr"}, {"measurement": "AUC0-t", "setting": "[2]; 3 mg/m2", "result": "5.625 (1.972) hr · ng/mL"}, {"measurement": "AUC0-t", "setting": "[2]; 6 mg/m2", "result": "11.599 (1.437) hr · ng/mL"}, {"measurement": "AUC0-t", "setting": "[2]; 9 mg/m2", "result": "16.581 (3.976) hr · ng/mL"}, {"measurement": "AUC0-t", "setting": "[2]; 20 mg/m2", "result": "29.023 (7.443) hr · ng/mL"}, {"measurement": "AUC0-t", "setting": "[2]; 30 mg/m2", "result": "78.761 (50.88) hr · ng/mL"}, {"measurement": "AUC0-t", "setting": "[2]; 35 mg/m2", "result": "102.97 (20.18) hr · ng/mL"}, {"measurement": "Cmax", "setting": "[2]; 35 mg/m2", "result": "74.800 (42.82) ng/mL"}, {"measurement": "Tmax", "setting": "[2]; 35 mg/m2", "result": "0.592 (0.091) hr"}, {"measurement": "t1/2", "setting": "[2]; 35 mg/m2", "result": "3.347 (1.219) hr"}, {"measurement": "AUC0-t", "setting": "[2]; 40 mg/m2", "result": "72.758 (49.22) hr · ng/mL"}, {"measurement": "AUC0-t", "setting": "[2]; 50 mg/m2", "result": "97.314 (38.34) hr · ng/mL"}, {"measurement": "AUC0-t", "setting": "[2]; 60 mg/m2", "result": "109.80 (25.72) hr · ng/mL"}, {"measurement": "time at which peak plasma concentrations (Cmax) were achieved", "setting": "[2]; iv", "result": "within one hour"}, {"measurement": "time of rapid rise of the metabolites in the serum after starting the infusion", "setting": "[2]; iv", "result": "≤ 15", "unit": "min"}, {"measurement": "topoisomerase I inhibition", "setting": "topoisomerase I", "result": "weak topoisomerase I Inhibitors"}]}]}
